Patent publication US4621077A, “Pharmacologically active biphosphonates, process for the preparation thereof and pharmaceutical compositions therefrom” (Istituto Gentili S.p.A., priority 1982, dated 1986)
Entries after “also recorded” stand apart in the source; their conditions may differ. Read-outs that look alike come from different tables or passages of the source.

Tests used:
[1] = tested on: skull cells (lactate production); assay: cells; format: cell-based, Wistar rats
Procedure: (§1) Cellular culture: the cells are cultured according to the method described by Fast et al, (Biochem. J. 172, 97-107 (1978)). By way of summary, the skulls removed from Wistar rats, one day old, are digested with collagenase. The cells set free are placed on a plate with concentration of 200,000 cells per cc of medium in disks "clusters" suitable for culture, the plates having 24 wells of 1.6 cm in diameter containing 0.5 cc of medium. The cells are cultivated in the essential minimum medium containing 10% of foetal calf serum in an atmosphere of 5% CO2 at 37° up to the eighth day. The bisphosphonates are added on the first day up to the end of the experiment. The medium is changed on the first, fourth and seventh day.
On the seventh day, the medium is changed and the cells are incubated for 16 hours. The lactate produced during this period is measured in an extract in HClO4 of the medium using lactatodehydrogenase.

injection sites / skin = assay: Necrosis at the injection sites in rats (local skin toxicity)
From the text: The symbol "x" represents a conventional score, that is "x" meand slight necrosis, "xx" means severe necrosis, "xxx" means very severe necrosis.

[2] = tested on: bone reabsorption and mineralization (tibia, trabecular metaphysis); format: in vivo, Wistar rats; conditions: for effect on bone reabsorption, in words: rat, in vivo
Procedure: Groups of five Wistar rats of weight 180-200 grams are treated for a period of seven days with 0.1, 1.0 and 10 mg of P/kg of the following biphosphonic acids:
The animals kept as a control were administered the solvent with NaCl. All the treatments were carried out by the subcutaneous route. […] The animals were fed with Altromine 1314 containing 1.1 g/100 g P and 250 IU/100 g of vitamin D3. On the eighth day, the animals were killed and the tibia was removed and fixed in 50% ethanol. The tibiae were then dehydrated in increasing concentration of ethanol and allowed to soak in methylmethacrylate after the addition of Plastoid N. Frontal sections were removed and cut to a thickness of 70-80 μm and then the sections were submitted to microradiography. This procedure permitted to evaluate the density of the mineral in the trabecular metaphysis according to the method of Shenk et al., Calc. Tiss. Res. 11, 196-214, 1973).
One animal per group has been evaluated.

[3] = tested on: bone reabsorption (metaphyseal bone density); assay: Metaphyseal bone density / inhibition of bone reabsorption in rats treated for 7 days; format: in vivo; conditions: 7 days, rats
in vivo = conditions: mouse, Swiss mice, read-out: DL50 (the source's name)
Procedure: For this study Swiss mice, both male and female, have been utilized: during the experiment, the animals are fed according to the method with Altromin in the form of tablets. For the oral and intraperitoneal administration, there are used 5% gum arabic solutions while saline solutions of pH 4 are used for the intravenous injections.
The preliminary values of DL50 are calculated according to a graphic method.

[4] = 37° C., two days, control 29, prior to incubation 114.7
Procedure: A model system is used to evaluate the ability of the phosphonates to inhibit the formation of crystals in inorganic solutions. Three solutions are prepared according to Fleisch.
The pH is brought to 7.4 by means of potassium hydroxide. The concentration of Ca^++ was 6.7 mg%, a level similar to the calcium in blood which has been subjected to untrafiltration and the concentration of the inorganic phosphate Pi give a product Ca^++ ×Pi=80. The solution was analyzed for Ca^++ and Pi and was distributed in Erlenmeyer flasks 12 cc each. The flasks were divided in groups as follows:
and then they are incubated under stirring at 37° C. for two days.
At the end of incubation, the solutions are passed through "millipore filters" for the purpose of retaining the ctystals which are formed during the incubation; the filtrate then is analyzed for Ca^++ and Pi. The results are also reported in Table 2 as the product of Ca^++ x Pi in the solution at the end of the experiment.

skull cells = assay: cells; format: cell-based, Wistar rats
Procedure: as §1
The cells are counted with a Coulter counter after they have been set free from the disks by digestion with a mixture of collagenase and trypsin.

[5] = Rattus norvegicus, 16 h, read-out: Effect on the production of lactate ± S.E.M.
[6] = 0.01 mg P/kg s.c., s.c. NaCl controls 29.72
[7] = 0.1 mg P/kg s.c., s.c. NaCl controls 29.72
[8] = 1.0 mg P/kg s.c., s.c. NaCl controls 29.72
[9] = 2.0 mg P/kg p.o., p.o. NaCl controls 28.45
[10] = Rattus norvegicus, read-out: Effect on the cellular number ± S.E.M.

## NCCCCCC(O)(P(=O)(O)O)P(=O)(O)O [AHEX BP, 6-amino-1-hydroxyhexane-1,1-biphosphonic acid]
[1]; [5]
  activity at 2.5 µM: 109 ± 6%
  activity at 25 µM: 108 ± 4.5%
[1]; Rattus norvegicus, 16 h, 250 μM, read-out: Effect on the production of lactate ± S.E.M.
  activity at 250 µM: 165 ± 7.7%
Injection sites / skin; 0.01 mg P/kg, 1 day
  necrosis at the injection sites: .0.
Injection sites / skin; 0.01 mg P/kg, 2 day
  necrosis at the injection sites: .0.
Injection sites / skin; 0.01 mg P/kg, 3 day
  necrosis at the injection sites: .0.
Injection sites / skin; 0.01 mg P/kg, 4 day
  necrosis at the injection sites: .0.
Injection sites / skin; 0.01 mg P/kg, 5 day
  necrosis at the injection sites: .0.
Injection sites / skin; 0.01 mg P/kg, 6 day
  necrosis at the injection sites: .0.
Injection sites / skin; 0.01 mg P/kg, 7 day
  necrosis at the injection sites: .0.
Injection sites / skin; 0.1 mg P/kg, 1 day
  necrosis at the injection sites: .0.
Injection sites / skin; 0.1 mg P/kg, 2 day
  necrosis at the injection sites: .0.
Injection sites / skin; 0.1 mg P/kg, 3 day
  necrosis at the injection sites: .0.
Injection sites / skin; 0.1 mg P/kg, 4 day
  necrosis at the injection sites: .0.
Injection sites / skin; 0.1 mg P/kg, 5 day
  necrosis at the injection sites: .0.
Injection sites / skin; 0.1 mg P/kg, 6 day
  necrosis at the injection sites: .0.
Injection sites / skin; 0.1 mg P/kg, 7 day
  necrosis at the injection sites: .0.
Injection sites / skin; 1 mg P/kg, 1 day
  necrosis at the injection sites: .0.
Injection sites / skin; 1 mg P/kg, 2 day
  necrosis at the injection sites: .0.
Injection sites / skin; 1 mg P/kg, 3 day
  necrosis at the injection sites: .0.
Injection sites / skin; 1 mg P/kg, 4 day
  necrosis at the injection sites: .0.
Injection sites / skin; 1 mg P/kg, 5 day
  necrosis at the injection sites: .0.
Injection sites / skin; 1 mg P/kg, 6 day
  necrosis at the injection sites: .0.
Injection sites / skin; 1 mg P/kg, 7 day
  necrosis at the injection sites: .0.
Injection sites / skin; 10 mg P/kg, 1 day
  necrosis at the injection sites: .0.
Injection sites / skin; 10 mg P/kg, 2 day
  necrosis at the injection sites: .0.
Injection sites / skin; 10 mg P/kg, 5 day
  necrosis at the injection sites: xxx
Injection sites / skin; 10 mg P/kg, 6 day
  necrosis at the injection sites: xxx
Injection sites / skin; 10 mg P/kg, 7 day
  necrosis at the injection sites: xxx
Injection sites / skin; 10 mg P/kg, 8 day
  death of animals: animals died spontaneously
[2]; 10 mg of P/kg / high dosage where stated
  effect on mineralization, in words: strong inhibition of mineralization; also recorded: exhibits high inhibition
[2]
  effect on bone reabsorption, in words: active on the reabsorption with a result slightly superior to Cl2 MBP
[3]; [6]
  metaphysical density: 38.12 % volume of calcified tissue
[3]; [7]
  metaphysical density: 46.96 % volume of calcified tissue
[3]; [8]
  metaphysical density: 54.93 % volume of calcified tissue
[3]; [9]
  metaphysical density: 34.69 % volume of calcified tissue
In vivo; ip
  LD50: 125 mg/kg
In vivo; iv
  LD50: 75 mg/kg
In vivo; po, os
  LD50: > 2000 mg/kg
[4]; 0.05 μM
  product Ca++ × Pi in solution after incubation: 30.0
[4]; 0.25 μM
  product Ca++ × Pi in solution after incubation: 37.5
[4]; 0.5 μM
  product Ca++ × Pi in solution after incubation: 59.6
[4]; 2.5 μM
  product Ca++ × Pi in solution after incubation: 92.6
[4]; 5.0 μM
  product Ca++ × Pi in solution after incubation: 95.3
Skull cells; [10]
  activity at 2.5 µM: 93.3 ± 3%
  activity at 25 µM: 95.2 ± 2.2%
Skull cells; Rattus norvegicus, 250 μM, read-out: Effect on the cellular number ± S.E.M.
  activity at 250 µM: 87 ± 3.4%

## NCCCCC(O)(P(=O)(O)O)P(=O)(O)O [AHPE BP, 5-amino-1-hydroxypentan-1,1-biphosphonic acid]
[1]; 250 μM
  Effect on the production of lactate ± S.E.M.: dead cells
[1]; [5]
  activity at 2.5 µM: 93.4 ± 3%
  activity at 25 µM: 354 ± 27.7%
Injection sites / skin; 0.01 mg P/kg, 1 day
  necrosis at the injection sites: .0.
Injection sites / skin; 0.01 mg P/kg, 2 day
  necrosis at the injection sites: .0.
Injection sites / skin; 0.01 mg P/kg, 3 day
  necrosis at the injection sites: .0.
Injection sites / skin; 0.01 mg P/kg, 4 day
  necrosis at the injection sites: .0.
Injection sites / skin; 0.01 mg P/kg, 5 day
  necrosis at the injection sites: .0.
Injection sites / skin; 0.01 mg P/kg, 6 day
  necrosis at the injection sites: .0.
Injection sites / skin; 0.01 mg P/kg, 7 day
  necrosis at the injection sites: .0.
Injection sites / skin; 0.1 mg P/kg, 1 day
  necrosis at the injection sites: .0.
Injection sites / skin; 0.1 mg P/kg, 2 day
  necrosis at the injection sites: .0.
Injection sites / skin; 0.1 mg P/kg, 3 day
  necrosis at the injection sites: .0.
Injection sites / skin; 0.1 mg P/kg, 4 day
  necrosis at the injection sites: .0.
Injection sites / skin; 0.1 mg P/kg, 5 day
  necrosis at the injection sites: .0.
Injection sites / skin; 0.1 mg P/kg, 6 day
  necrosis at the injection sites: .0.
Injection sites / skin; 0.1 mg P/kg, 7 day
  necrosis at the injection sites: .0.
Injection sites / skin; 1 mg P/kg, 1 day
  necrosis at the injection sites: .0.
Injection sites / skin; 1 mg P/kg, 2 day
  necrosis at the injection sites: .0.
Injection sites / skin; 1 mg P/kg, 3 day
  necrosis at the injection sites: .0.
Injection sites / skin; 1 mg P/kg, 4 day
  necrosis at the injection sites: .0.
Injection sites / skin; 1 mg P/kg, 5 day
  necrosis at the injection sites: .0.
Injection sites / skin; 1 mg P/kg, 6 day
  necrosis at the injection sites: .0.
Injection sites / skin; 1 mg P/kg, 7 day
  necrosis at the injection sites: .0.
Injection sites / skin; 10 mg P/kg, 1 day
  necrosis at the injection sites: xxx
Injection sites / skin; 10 mg P/kg, 2 day
  necrosis at the injection sites: xxx
[2]
  effect on bone reabsorption, in words: the most active in inhibiting the bone reabsorption
[2]; s.c., 10 mg of P/kg / higher dosage
  toxicity during the bone reabsorption experiment: Experiment interrupted due to acute toxicity; also recorded: a toxicity at the higher dosage
[3]; [6]
  metaphysical density: 37.85 % volume of calcified tissue
[3]; [7]
  metaphysical density: 50.44 % volume of calcified tissue
[3]; [8]
  metaphysical density: 56.47 % volume of calcified tissue
[3]; [9]
  metaphysical density: 38.70 % volume of calcified tissue
In vivo; ip
  LD50: 75 mg/kg
In vivo; iv
  LD50: 85 mg/kg
In vivo; po, os
  LD50: 1500 mg/kg
[4]; 0.05 μM
  product Ca++ × Pi in solution after incubation: 36.7
[4]; 0.25 μM
  product Ca++ × Pi in solution after incubation: 37.1
[4]; 0.5 μM
  product Ca++ × Pi in solution after incubation: 68.6
[4]; 2.5 μM
  product Ca++ × Pi in solution after incubation: 94.0
[4]; 5.0 μM
  product Ca++ × Pi in solution after incubation: 97.5
Skull cells; 250 μM
  Effect on the cellular number ± S.E.M.: dead cells
Skull cells; [10]
  activity at 2.5 µM: 103 ± 2.8%
  activity at 25 µM: 42.6 ± 5.1%
